Assay: Toxicity of systemic LY411575
Format: in vivo
Settings: 50 mg/kg for 5 d
Method: For systemic administration, LY411575 (50 mg/kg) dissolved in 0.5% (wt/vol) methylcellulose (WAKO) was injected orally once daily for 5 consecutive d. Hearing was measured by ABR at 1 d before, 2 d, 1, 2 week, 1, 2 and 3 months after noise exposure.
Preliminary range finding experiments for drug treatment were carried out by systemic injection and were limited by toxicity. A minimal dosing regimen for an effect on the thymus weight was chosen (43, 44).

## C[C@H](NC(=O)[C@@H](O)c1cc(F)cc(F)c1)C(=O)N[C@@H]1C(=O)N(C)c2ccccc2-c2ccccc21 [LY411575, N-2((2S)-2-(3,5-difluorophenyl)-2-hydroxyethanoyl)-N1-((7S)-5-methyl-6-oxo-6,7-dihydro-5H-dibenzo[b,d]azepin-7-yl)-l-alaninamide]
  side-effects in treated mice: significant side-effects
  thymus total number of cells decreased to: 1/40
Deaths due to severe diarrhea and weight loss
  mice (of 12) that could be tested for ABR at 3 months; the rest died within the first week: 6 mice
Decreased from 78.6%
  thymus double positive fraction of CD4 and CD8 after treatment: 1.23%
In 3 d
  weight loss in surviving mice: approximately 15%
In a week
  spleen finding: severe atrophy

— patent publication US12161647B2, “Treating hearing loss” (Massachusetts Eye and Ear Infirmary, priority 2012, dated 2024)
